Experimental data taken from US9216186B2, “Combination of a pyrroloquinoline compound and an aminoglycodise antimicrobial agent” (HELPERBY THERAPEUTICS LIMITED, priority 2010, dated 2015).
≈ marks a conversion by molar mass, not a printed value. Where “and” joins values, the source holds several entries; their conditions need not be identical. Equal entries are not always repeated. Structures can show the parent of a compound that is named as a salt. Where two headings read alike, the source gives them in different places.

Columns and labels:
Format in all cases: cell-based
[1] = system: Staphylococcus aureus (Oxford); test: Minimum bactericidal concentration (MBC), subculture on drug-free TSA plates; conditions: S. aureus (Oxford)
[2] = system: Staphylococcus aureus (Oxford); test: Minimum inhibitory concentration (MIC), broth dilution in Iso-Sensitest broth; conditions: S. aureus (Oxford), overnight incubation at 37° C.
Protocol: Staphylococcus aureus (Oxford); Gram positive; Reference strain.
Iso-Sensitest Broth (Oxoid) was used for evaluation of Minimum inhibitory concentrations (MICs), susceptibility tests for antimicrobials, and efficacy of antimicrobial combinations.
The stock solution of each drug was diluted to required concentrations. 10 μl of drug from each dilution was taken and mixed with 290 μl of culture with 10^6 of bacterial cells on a 96-well plate to make the final required concentrations (μg/ml).
The plates were read at 405 nm using a 96-well plate reader Elx 800 equipped with a 405-nm filter (Bio-Tek) before and after incubation. The MIC values of the drugs were determined by comparison of the optical density reading between prior and post drug treatment.

[3] = system: stationary phase Pseudomonas aeruginosa (clinical isolate); test: Kill curve by CFU counts against stationary phase bacteria
Protocol: (§1) Pseudomonas aeruginosa (clinical isolate).
A single colony of Ps. aeruginosa was inoculated in 10 ml of Nutrient Broth No. 2 (NB) (Oxoid) which was incubated overnight at 37° C. with continuous shaking at 120 rpm. 200 μl of the overnight culture was added into a 500 ml screw-cap which contained 100 ml of NB. The 100 ml culture was incubated at 37° C. with continuous shaking for 5 to 6 days. The cultures were diluted with phosphate buffered saline to 10^7 CFU/ml.
The activities of the combination and each of the individual drugs were measured by CFU counts at 0, 2, 4, 6 and 8 hours. CFU counts were performed as follows: from serial 10-fold dilutions of the experimental cultures, 100 μl samples were added to triplicate plates of nutrient agar plates (Oxoid). Colony forming units (CFU) were counted after incubation of the plates at 37° C. for 24 hours.

[4] = system: log phase Pseudomonas aeruginosa (clinical isolate); test: Chequerboard analysis of log phase bacteria, optical density at 405 nm / MIC; conditions: for MIC: single agent, range up to 64 μg/ml HT61, 16 μg/ml tobramycin
Protocol: as §1
P. aeruginosa was grown in 10 ml of NB overnight at 37° C. with continuous shaking at 120 rpm. The overnight cultures were diluted 1000× with iso-sensitest broth to obtain a cell suspension containing the bacteria at 10^6 CFU/ml. The cultures were incubated at 37° C. with shaking for 1-2 hours served as log-phase cultures. Viability of the bacteria was estimated by colony forming unit (CFU) counts.
The two drugs were serially diluted twofold to 0 and combined in a pattern of an array.
The optical density of the bacterial cells was read at 405 nm using a plate reader (Bio TEK). The MIC concentration was determined as the lowest concentration of drug which inhibits the bacterial growth. The MIC values of the drugs were determined by comparison of the optical density reading between prior and post drug treatment.

[5] = system: clinically latent microorganisms; test: Screening of compounds for ability to kill clinically latent microorganisms (method of WO2000028074); conditions: observed by the Applicant using the method of WO2000028074
Excerpt: International Patent Application, Publication Number WO2000028074 describes a method of screening compounds to determine their ability to kill clinically latent microorganisms. […] This observation has necessitated the development of novel antimicrobials which may be used to kill clinically latent microorganisms.
By way of example, WO2000028074 describes a suitable method of screening compounds to determine their ability to kill clinically latent microorganisms. A typical method may include the following steps: • (1) growing a bacterial culture to stationary phase; • (2) treating the stationary phase culture with one or more antimicrobial agents at a concentration and or time sufficient to kill growing bacteria, thereby selecting a phenotypically resistant sub-population; • (3) incubating a sample of the phenotypically resistant subpopulation with one or more test compounds or agents; and • (4) assessing any antimicrobial effects against the phenotypically resistant subpopulation.

[6] = Staphylococcus aureus, read-out: MIC

Cc1nc2ccc(Oc3ccccc3)cc2c2c1CCN2CCc1ccccc1 [4-methyl-8-phenoxy-1-(2-phenylethyl)-2,3-dihydro-1H-pyrrolo[3,2-c]quinoline]
MBC ([1]; Staphylococcus aureus, read-out: MBC): 16 µg/mL (≈ 42.1 µM) | MIC [2, 6]: 8 µg/mL

Cc1nc2ccc(Oc3ccccc3)cc2c2c1CCN2CCc1ccccc1 [HT61, 4-methyl-8-phenoxy-1-(2-phenylethyl)-2,3-dihydro-1H-pyrrolo[3,2-c]quinoline mesylate]
activity alone against stationary phase P. aeruginosa ([3]; alone at 32, 16 and 8 μg/ml): slight or no activities | optical density at 405 nm ([4]; HT61 1 μg/ml alone (tobramycin 0), mesylate): 3.16 and 3.08 | optical density at 405 nm ([4]; HT61 2 μg/ml alone (tobramycin 0), mesylate): 3.12 and 3.11 | optical density at 405 nm ([4]; HT61 4 μg/ml alone (tobramycin 0), mesylate): 3.11 and 3.10 | optical density at 405 nm ([4]; HT61 8 μg/ml alone (tobramycin 0), mesylate): 3.15 and 3.10 | optical density at 405 nm ([4]; HT61 16 μg/ml alone (tobramycin 0), mesylate): 3.11 and 3.07 | optical density at 405 nm ([4]; HT61 32 μg/ml alone (tobramycin 0), mesylate): 3.09 and 3.04 | optical density at 405 nm ([4]; HT61 64 μg/ml alone (tobramycin 0), mesylate): 3.01 and 3.09 | MIC ([4]; log phase P. aeruginosa): no MIC | MIC of HT61 in combination with tobramycin ([4]; with tobramycin at 0.5 μg/ml, log phase P. aeruginosa): 16 µg/mL

NC[C@H]1O[C@H](O[C@H]2[C@H](O)[C@@H](O[C@H]3O[C@H](CO)[C@@H](O)[C@H](N)[C@H]3O)[C@H](N)C[C@@H]2N)[C@H](O)[C@@H](O)[C@@H]1O [Kanamycin]
MIC [2, 6]: 8 µg/mL

NC[C@H]1O[C@H](O[C@H]2[C@H](O)[C@@H](O[C@H]3O[C@H](CO)[C@@H](O)[C@H](N)[C@H]3O)[C@H](N)C[C@@H]2N)[C@H](N)C[C@@H]1O [Tobramycin]
activity alone against stationary phase P. aeruginosa ([3]; alone at 2 and 1 μg/ml): very low or no activities | MIC ([4]; Pseudomonas aeruginosa, log phase P. aeruginosa, read-out: MIC): 1 µg/mL | optical density at 405 nm ([4]; tobramycin 0.01563 μg/ml alone (HT61 0)): 3.25 and 3.14 | optical density at 405 nm ([4]; tobramycin 0.03125 μg/ml alone (HT61 0)): 3.24 and 3.18 | optical density at 405 nm ([4]; tobramycin 0.0625 μg/ml alone (HT61 0)): 3.16 and 3.09 | optical density at 405 nm ([4]; tobramycin 0.125 μg/ml alone (HT61 0)): 3.15 and 3.08 | optical density at 405 nm ([4]; tobramycin 0.25 μg/ml alone (HT61 0)): 3.04 and 2.97 | optical density at 405 nm ([4]; tobramycin 0.5 μg/ml alone (HT61 0)): 2.19 and 2.18 | optical density at 405 nm ([4]; tobramycin 1 μg/ml alone (HT61 0)): 0.46 | optical density at 405 nm ([4]; tobramycin 2 μg/ml alone (HT61 0)): 0.44 and 0.45 | optical density at 405 nm ([4]; tobramycin 4 μg/ml alone (HT61 0)): 0.47 and 0.50 | optical density at 405 nm ([4]; tobramycin 8 μg/ml alone (HT61 0)): 0.44

CC[C@H]1OC(=O)[C@H](C)[C@@H](O[C@H]2C[C@@](C)(OC)[C@@H](O)[C@H](C)O2)[C@H](C)[C@@H](O[C@@H]2O[C@H](C)C[C@H](N(C)C)[C@H]2O)[C@](C)(O)C[C@@H](C)CN(C)[C@H](C)[C@@H](O)[C@]1(C)O [azithromycin]
activity against clinically latent microorganisms [5]: little or no activity

CC(=O)NC[C@H]1CN(c2ccc(N3CCOCC3)c(F)c2)C(=O)O1 [linezolid]
activity against clinically latent microorganisms [5]: little or no activity

C/C(=C\C(=O)OCCCCCCCCC(=O)O)C[C@@H]1OC[C@H](C[C@@H]2O[C@H]2[C@@H](C)[C@H](C)O)[C@@H](O)[C@H]1O [mupirocin]
activity against clinically latent microorganisms [5]: little or no activity

Gentamicin
MBC [1]: 8 µg/mL | MIC [2]: 1 µg/mL

co-amoxiclav
activity against clinically latent microorganisms [5]: little or no activity
